Data on two molecules can be found in publication PMC12409219, “Binding kinetics, bias, receptor internalization and effects on insulin secretion in vitro and in vivo of a novel GLP‐1R/GIPR dual agonist, HISHS‐2001” (Diabetes, Obesity & Metabolism, 2025).

One data set in a line: in vivo. Also noted: species or system mouse. The note with it: sc; for Tmax / half-life: male, CD-1, mouse; for stability in the circulation: mouse. The method, then: Ninety animals were procured from LAR. Animals were acclimatized for 1 day. On Day 0, each animal was weighed. […] Animals were injected subcutaneously at 1 mg/kg for the corresponding agonist (dose volume: 10 mL/kg) using 26½ gauge needles. At 1, 2, 4, 8, 12, 24, 48, 72, and 96 h, ~500 μL of blood was collected by retro‐orbital plexus puncture using capillary micro‐centrifuge tubes containing anticoagulant (15 μL 10% K2 EDTA). Plasma was separated from blood by centrifugation at ~3300 rpm for 10 min at 4°C. HISHS‐2001 concentrations were estimated using liquid chromatography with tandem mass spectrometry.

The target of data set [1] is T1, human GLP-1R (Homo sapiens, UniProt P43220). Nature of the data set: cAMP assay in HEK293-SNAP-GLP-1R cells (HTRF). Type of data set: cell-based. The note with it: 30-min stimulation, n = 4, compared to native GLP-1(7-36)NH2.
T1 sequence (P43220 24-463): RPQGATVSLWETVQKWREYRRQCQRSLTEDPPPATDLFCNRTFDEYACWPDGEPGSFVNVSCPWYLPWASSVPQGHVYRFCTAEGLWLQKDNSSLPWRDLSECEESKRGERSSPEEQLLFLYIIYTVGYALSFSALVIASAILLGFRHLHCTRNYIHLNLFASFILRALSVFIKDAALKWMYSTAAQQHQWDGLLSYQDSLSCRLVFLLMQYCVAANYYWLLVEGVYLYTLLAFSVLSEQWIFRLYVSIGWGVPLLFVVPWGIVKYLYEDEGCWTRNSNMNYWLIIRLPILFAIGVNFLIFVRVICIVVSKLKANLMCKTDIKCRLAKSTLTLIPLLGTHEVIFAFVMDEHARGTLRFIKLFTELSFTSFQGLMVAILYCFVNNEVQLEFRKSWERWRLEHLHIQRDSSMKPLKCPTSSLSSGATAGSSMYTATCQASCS
Procedure: HEK293 cells stably expressing human GLP‐1R or human GIPR, each self‐labelling protein tag (SNAP)‐tagged at their N‐termini (Cisbio), were cultured in Dulbecco's Modified Eagle's Medium (DMEM) medium (Gibco), 10% fetal bovine serum (FBS) and 1% penicillin/streptomycin.
HEK293‐SNAP‐GLP‐1R, HEK293‐SNAP‐GIPR or GLP‐1R‐β‐arrestin 2 cells were seeded overnight in 12‐well plates. On the day of the assay, cells were resuspended and dispensed into white, 96‐well plates containing the indicated concentration of agonist prepared in serum‐free medium containing 0.1% bovine serum albumin (BSA). After a 30‐min stimulation, cAMP detection reagents (cAMP dynamic kit, Cisbio) were added, and the plate was read 60 min later using an HTRF‐compatible plate reader. Data were analysed using three‐parameter logistic fitting (GraphPad Prism 9.0) and normalised to the maximal fitted response of the reference ligand (GLP‐1 or semaglutide) for presentation purposes.
For data set [2], the target named is T1, human GLP-1R. Nature of the data set: GLP-1R binding kinetics, TR-FRET competitive kinetics with exendin(9-39)-FITC. The note with it: calculated from K on and K off; HISHS-2001 versus tirzepatide. The method, then: HEK293‐SNAP‐GLP‐1R cells were seeded overnight in 12‐well plates. On the day of the assay, cells were labelled with 40 nM Lumi4‐Tb (Cisbio) in complete medium for 30 min. After washing, labelled cells were preincubated for 20 min in Hanks' Balanced Salt Solution (HBSS) supplemented with 0.1% BSA and a metabolic inhibitor cocktail (10 mM NaN3, 20 mM 2‐deoxyglucose) to inhibit GLP‐1R endocytosis that would otherwise influence binding assays. Ligand binding was then detected in real time using time‐resolved Förster resonance energy transfer (TR‐FRET) using a Flexstation 3 plate reader (Molecular Devices). […] Plate reader settings included 340 nm λexcitation, 520 nm (cut‐off 495 nm) and 620 nm (cut‐off 570 nm) λemission, 400 μs delay and 1500 μs integration time. Association and dissociation rate constants were calculated using the kinetics of competitive binding algorithm in GraphPad Prism 9.0.

Molecules are shown by their SMILES.

The term Tmax denotes the time at which the peak concentration occurs. As usually defined, the half-life is the time in which the quantity being followed falls by half. High values mean slow loss, low ones fast loss. On to `CC[C@H](C)[C@H](NC(=O)[C@H](CC(C)C)NC(=O)[C@H](Cc1c[nH]c2ccccc12)NC(=O)[C@H](CCC(N)=O)NC(=O)[C@@H](NC(=O)[C@H](Cc1ccccc1)NC(=O)[C@H](C)NC(=O)[C@H](CCCCNC(=O)COCCOCCNC(=O)COCCOCCNC(=O)CC[C@H](NC(=O)CCCCCCCCCCCCCCCCCCC(=O)O)C(=O)O)NC(=O)[C@H](CCC(N)=O)NC(=O)[C@H](C)NC(=O)[C@@H](NC(=O)[C@H](CCCCN)NC(=O)[C@H](CC(=O)O)NC(=O)[C@H](CC(C)C)NC(=O)C(C)(C)NC(=O)[C@@H](NC(=O)[C@H](CO)NC(=O)[C@H](Cc1ccc(O)cc1)NC(=O)[C@H](CC(=O)O)NC(=O)[C@H](CO)NC(=O)[C@@H](NC(=O)[C@H](Cc1ccccc1)NC(=O)[C@@H](NC(=O)CNC(=O)[C@H](CCC(=O)O)NC(=O)C(C)(C)NC(=O)[C@@H](N)Cc1ccc(O)cc1)[C@@H](C)O)[C@@H](C)O)[C@@H](C)CC)[C@@H](C)CC)C(C)C)C(=O)N[C@@H](C)C(=O)NCC(=O)NCC(=O)N1CCC[C@H]1C(=O)N[C@@H](CO)C(=O)N[C@@H](CO)C(=O)NCC(=O)N[C@@H](C)C(=O)N1CCC[C@H]1C(=O)N1CCC[C@H]1C(=O)N1CCC[C@H]1C(=O)N[C@@H](CO)C(N)=O` [tirzepatide, reference compound], for which, in the data set “in vivo”, the Tmax was 8 h, the half-life was 8.78 h and the “stability in the circulation” value is “similar”.

With `CC[C@H](C)[C@H](NC(=O)[C@H](CC(C)C)NC(=O)[C@H](Cc1c[nH]c2ccccc12)NC(=O)[C@H](CCC(N)=O)NC(=O)[C@@H](NC(=O)[C@H](Cc1ccccc1)NC(=O)[C@H](C)NC(=O)[C@H](CCCCNC(=O)COCCOCCNC(=O)C(C)(C)NC(=O)CC[C@H](NC(=O)CCCCCCCCCCCCCCCCCCC(=O)O)C(=O)O)NC(=O)[C@H](CCC(N)=O)NC(=O)[C@H](C)NC(=O)[C@@H](NC(=O)[C@H](CCCCN)NC(=O)[C@H](CC(=O)O)NC(=O)[C@H](CC(C)C)NC(=O)C(C)(C)NC(=O)[C@@H](NC(=O)[C@H](CO)NC(=O)[C@H](Cc1ccc(O)cc1)NC(=O)[C@H](CC(=O)O)NC(=O)[C@H](CO)NC(=O)[C@@H](NC(=O)[C@H](Cc1ccccc1)NC(=O)[C@@H](NC(=O)CNC(=O)[C@H](CCC(=O)O)NC(=O)C(C)(C)NC(=O)[C@@H](N)Cc1ccc(O)cc1)[C@@H](C)O)[C@@H](C)O)[C@@H](C)CC)[C@@H](C)CC)C(C)C)C(=O)N[C@@H](C)C(=O)NCC(=O)NCC(=O)N1CCC[C@H]1C(=O)N[C@@H](CO)C(=O)N[C@@H](CO)C(=O)NCC(=O)N[C@@H](C)C(=O)N1CCC[C@H]1C(=O)N1CCC[C@H]1C(=O)N1CCC[C@H]1C(=O)N[C@@H](CO)C(N)=O` [HISHS-2001], the “cAMP potency (pEC50) at the GLP-1R” value at human GLP-1R [1] is recorded as “significantly reduced potency”. In addition, the “calculated Kd at GLP-1R” value at human GLP-1R [2] was “also lower”. Further, in “in vivo”, the time of peak concentration (Tmax) is 8 h, the half-life was 10.1 h and the “stability in the circulation” value is recorded as “similar”.
